Data: PMC5522529, “Mechanisms of Paradoxical Activation of AMPK by the Kinase Inhibitors SU6656 and Sorafenib” (Cell Chemical Biology, 2017)

Experiments:
[1] = molecular target: human AMPK-α2 (WT) (Homo sapiens, UniProt P54646); assay: AMPK activity of FLAG-tagged WT AMPK-α2 expressed in HEK293 cells; format: cell-based; details: SU6656 100 μM, phenformin 10 mM, A23187 10 μM, 1 hr
Experimental: (§1) Top: AMPK activity (mean ± SEM, n = 4); bottom: western blots showing phosphorylation of Thr172 on AMPK, and of ERK1/2, in cells treated with DMSO (control), SU6656 (100 μM), or PP2 (100 nM) (n = 2). (B) As (A), but in SYF cells. (C) HeLa cells were transfected with DNAs encoding GFP alone, or GFP fused to WT, Y261F/Y365F (FF), or Y36F/Y261F/Y365F (FFF) mutants of LKB1; cells were treated with increasing concentrations of SU6656 for 1 hr and AMPK activity determined (mean ± SEM, n = 4). See also Figure S1. (D) HEK293 cells were transfected with DNAs encoding FLAG-tagged AMPK-α2 with or without a Y436F mutation. Cells were incubated with DMSO (control), 100 μM SU6656, 10 mM phenformin, or 10 μM A23187 for 1 hr; AMPK complexes were immunoprecipitated using anti-FLAG antibody and assayed. The top panels show kinase activities (mean ± SD, n = 3); the bottom panels show blots from the same experiment (n = 2). In all panels, asterisks indicate significant differences from DMSO controls; in (D), there were no significant differences between the WT and Y463F mutant. **p < 0.01, ****p < 0.0001.

[2] = molecular target: T1, AMPK-α1 (WT) (Homo sapiens, UniProt Q13131); assay: AMPK activity of FLAG-tagged AMPK-α1 (WT) expressed in HEK293 cells; format: cell-based; details: 1 hr; for AMPK activity: WT FLAG-α1 (comparison with AT mutant)
T1 construct: we expressed FLAG-tagged full-length AMPK-α1 either as the WT or the AT mutant; expressed in transfected cells; host or cells: HEK293
Source text: (§2) (B) Western blotting of the same preparations as in (A). […] (D) Allosteric activation of WT and mutant α1β1γ1 complexes by MT 63-78, curve fitting as for (C). […] (E) Allosteric activation of WT and mutant α1β1γ1 complexes by AMP. Data were fitted to the equation for activation/inactivation by AMP ([Gowans et al., 2013]). […] (F) Activation of WT and AA mutant by various AMPK activators in HEK293 cells. […] FLAG-tagged complexes were isolated by immunoprecipitation and AMPK activity determined (mean ± SEM, n = 2).
(§3) We next expressed the FLAG-tagged WT or AA mutant of AMPK-α1 by transient transfection in HEK293 cells, treated with various agents, and measured AMPK activity in anti-FLAG immunoprecipitates. In Figure 4F, the results are expressed as absolute activities and are accompanied by blots showing Thr172 phosphorylation.
The α1-KD was precipitated using anti-FLAG and endogenous AMPK complexes using anti-α1 antibody, and activity determined. […] (B) Western blots (n = 2) using the indicated antibodies; samples from experiment in (A). (C) DNAs encoding FLAG-tagged AMPK-α1 (WT or AT mutant) were expressed by transient transfection in HEK293 cells, the cells treated with increasing concentrations of SU6656 for 1 hr, AMPK complexes precipitated with anti-FLAG, and activity measured.

[3] = molecular target: T2, endogenous full-length α1 complexes (Homo sapiens, UniProt Q13131); assay: Activity of endogenous full-length α1 complexes in HEK293 cells; format: cell-based; details: 1 hr
T2 construct: endogenous in cells
Source text: (§4) We next expressed an FLAG-tagged α1 kinase domain (α1-KD, residues 1–312) by transient transfection in HEK293 cells, treated the cells with various AMPK activators, and then assayed both the expressed α1-KD (precipitated using anti-FLAG) and endogenous full-length α1 complexes (precipitated using anti-α1 antibodies recognizing an epitope outside the α1-KD). […] This was also observed with A23187, as expected since this ionophore increases intracellular Ca^2+ and activates the alternate upstream kinase CaMKK2.
(§5) The α1-KD was precipitated using anti-FLAG and endogenous AMPK complexes using anti-α1 antibody, and activity determined. Results (mean ± SD, n = 2) are expressed relative to activities in DMSO controls. (B) Western blots (n = 2) using the indicated antibodies; samples from experiment in (A). (C) DNAs encoding FLAG-tagged AMPK-α1 (WT or AT mutant) were expressed by transient transfection in HEK293 cells, the cells treated with increasing concentrations of SU6656 for 1 hr, AMPK complexes precipitated with anti-FLAG, and activity measured. Results (mean ± SD, n = 3) are expressed relative to the DMSO control. […] Results (mean ± SD, n = 3) are expressed relative to the DMSO control. **p < 0.01, ***p < 0.001, ****p < 0.0001, ^†††p < 0.001; ns, not significant.

[4] = molecular target: T3, α1 kinase domain (α1-KD, residues 1–312) (Homo sapiens, UniProt Q13131); assay: Activity of FLAG-tagged α1 kinase domain expressed in HEK293 cells; format: cell-based; details: 1 hr
T3 construct: amplifying residues 1-312 with an N-terminal FLAG-tag; expressed in transfected cells; host or cells: HEK293 (transient transfection, pcDNA5 FRT)
Source text: as §4, §5
A plasmid encoding the AMPK-α2 kinase domain (α2-KD) was made by amplifying residues 1-310 with 5' BamH1 and 3' Xho1 sites, the resulting PCR product was cloned into pGEX6P2. Point mutations were generated using the Quikchange II site-directed mutagenesis kit (Stratagene) and confirmed by DNA sequencing.

[5] = molecular target: T4, AMPK-α1 AT mutant (Homo sapiens, UniProt Q13131, A167T); assay: AMPK activity of FLAG-tagged AMPK-α1 AT mutant expressed in HEK293 cells; format: cell-based; details: AT mutant FLAG-α1, 1 hr
T4 construct: we expressed FLAG-tagged full-length AMPK-α1 either as the WT or the AT mutant; expressed in transfected cells; host or cells: HEK293 (transient transfection)
Source text: as §5
To confirm that it acted by binding at the catalytic site, we expressed FLAG-tagged full-length AMPK-α1 either as the WT or the AT mutant.

[6] = molecular target: T5, human AMPK-α2 Y436F mutant (Homo sapiens, UniProt P54646, Y436F); assay: AMPK activity of FLAG-tagged Y436F AMPK-α2 expressed in HEK293 cells; format: cell-based; details: SU6656 100 μM, phenformin 10 mM, A23187 10 μM, 1 hr
T5 construct: expressed in transfected cells; host or cells: HEK293 (transient transfection)
Experimental: as §1

[7] = molecular target: T6, human α1β1γ1 complex (Homo sapiens, UniProt P54619+Q13131+Q9Y478); assay: Allosteric activation of bacterially expressed human α1β1γ1 complex, WT; format: biochemical
T6 construct: made in house; host or cells: Escherichia coli
Source text: (§6) We next tested whether SU6656 activates AMPK by binding at the ADaM site. […] We therefore expressed WT or single (K40A, K42A) or double (K40A/K42A, AA) α1 mutants in the context of the human α1β1γ1 complex (Figure 4A).
as §2
(§7) Endogenous AMPK was immunoprecipitated using the specified antibodies (for total AMPK, an equal mixture of anti-α1 and –α2 antibodies) and assayed at 200 μM ATP ([Hardie et al., 2000], [Towler et al., 2008]) using the AMARA peptide ([Dale et al., 1995]) as substrate, except for assays of allosteric activation by AMP (Figure 5A) where the SAMS peptide was used as substrate with 2 mM ATP ([Gowans et al., 2013]). The AMPK-related kinases SIK1, SIK2, SIK3, SNARK, MARK2/3 and MARK4 were immunoprecipitated and assayed as previously described ([Lizcano et al., 2004]) in lysates of Hela cells stably expressing LKB1 ([Fogarty et al., 2010]). LKB1 was assayed using the LKBtide peptide as substrate ([Sakamoto et al., 2004]).
(§8) Data were fitted to the specified equations by non-linear regression using GraphPad Prism 6 for Mac OSX.

[8] = molecular target: T7, human α1β1γ1 complex with K40A mutation in α1 (Homo sapiens, UniProt P54619+Q13131+Q9Y478, K40A); assay: Allosteric activation of α1β1γ1 complex, K40A mutant; format: biochemical
T7 construct: made in house; host or cells: Escherichia coli
Source text: as §6, §2, §7, §8

[9] = molecular target: T8, human α1β1γ1 complex with K42A mutation in α1 (Homo sapiens, UniProt P54619+Q13131+Q9Y478, K42A); assay: Allosteric activation of α1β1γ1 complex, K42A mutant; format: biochemical
T8 construct: made in house; host or cells: Escherichia coli
Source text: as §6, §2, §7, §8

[10] = molecular target: T9, human α1β1γ1 complex with K40A/K42A (AA) mutations in α1 (Homo sapiens, UniProt P54619+Q13131+Q9Y478, K40A/K42A); assay: Allosteric activation of α1β1γ1 complex, K40A/K42A (AA) mutant; format: biochemical
T9 construct: made in house; host or cells: Escherichia coli
Source text: as §6, §2, §7, §8

[11] = molecular target: T10, AMPK-γ2 (WT) (Homo sapiens, UniProt Q9UGJ0); assay: AMPK activity in HEK293 cells expressing WT AMPK-γ2; format: cell-based; details: 1 hr
T10 construct: expressed in transfected cells; host or cells: Flp-In T-REx 293 (HEK293), tetracycline-inducible
Source text: (§9) The next possibility was that, like several other AMPK-activating drugs, SU6656 inhibits mitochondrial ATP synthesis, and thus activates AMPK indirectly by increasing cellular AMP/ADP. To test this, we used cell lines inducibly expressing either WT AMPK-γ2 or an AMP/ADP-resistant R531G (RG) mutant ([Hawley et al., 2010]). […] There were no effects of SU6656 on cellular oxygen uptake, unlike berberine. Subsequent addition of the uncoupler 2,4-dinitrophenol (DNP), which prevents the respiratory chain from being limited by ADP supply, increased oxygen uptake identically in control and SU6656-treated cells but had no effect following berberine, as expected for a complex I inhibitor (Figure S2).
(§10) (B) WT or RG cells were treated as in (A) and nucleotides extracted for analysis (mean ± SD, n = 3). […] (E) (See also Figure S2) Time courses of cellular oxygen uptake before and after addition of the indicated concentrations of sorafenib (SO, μM), SU6656 (100 μM) or phenformin (PHEN, 10 mM) (mean ± SEM, n = 4). (F) Effect of various concentrations of sorafenib or phenformin (10 mM) on activation (top, mean ± SEM, n = 3) or phosphorylation (bottom) of AMPK in cells expressing wild-type AMPK-γ2 (WT) or the R531G mutant AMPK-γ2 (RG). In all panels, asterisks show significant differences from DMSO controls (ns, not significant). In (B), daggers (†) show significant differences between results in WT and RG cells. *p < 0.05, **p < 0.01, ***p < 0.001, ****p < 0.0001, ^††††p < 0.0001.
(§11) HEK-293 cells stably expressing tetracycline-inducible FLAG-tagged human AMPK-γ2, or an R531G mutant, were generated by introducing the corresponding DNAs into Flp-In™ T-REx™ 293 cells ([Auciello et al., 2014]). Expression of the FLAG-tagged constructs was induced for 48 hr using tetracycline (1 μg.ml^-1) prior to addition of compounds under test. Transient transfections were carried out 36-48 hr prior to experiments, using Fugene 6 according to manufacturers’ instructions.

[12] = molecular target: T11, AMPK-γ2 R531G (RG) mutant (Homo sapiens, UniProt Q9UGJ0, R531G); assay: AMPK activity in HEK293 cells expressing R531G AMPK-γ2; format: cell-based; details: 1 hr
T11 construct: expressed in transfected cells
Source text: as §9, §10, §11

[13] = molecular target: T12, AMPK-α1 AA mutant (Homo sapiens, UniProt Q13131, K40A/K42A); assay: AMPK activity of FLAG-tagged AMPK-α1 K40A/K42A (AA) mutant expressed in HEK293 cells; format: cell-based; details: AA mutant FLAG-α1; same concentrations, 1 hr
T12 construct: Plasmid encoding full-length human AMPK-α1; expressed in transfected cells; host or cells: HEK293
Source text: as §2, §3

T1 sequence (Q13131 whole entry): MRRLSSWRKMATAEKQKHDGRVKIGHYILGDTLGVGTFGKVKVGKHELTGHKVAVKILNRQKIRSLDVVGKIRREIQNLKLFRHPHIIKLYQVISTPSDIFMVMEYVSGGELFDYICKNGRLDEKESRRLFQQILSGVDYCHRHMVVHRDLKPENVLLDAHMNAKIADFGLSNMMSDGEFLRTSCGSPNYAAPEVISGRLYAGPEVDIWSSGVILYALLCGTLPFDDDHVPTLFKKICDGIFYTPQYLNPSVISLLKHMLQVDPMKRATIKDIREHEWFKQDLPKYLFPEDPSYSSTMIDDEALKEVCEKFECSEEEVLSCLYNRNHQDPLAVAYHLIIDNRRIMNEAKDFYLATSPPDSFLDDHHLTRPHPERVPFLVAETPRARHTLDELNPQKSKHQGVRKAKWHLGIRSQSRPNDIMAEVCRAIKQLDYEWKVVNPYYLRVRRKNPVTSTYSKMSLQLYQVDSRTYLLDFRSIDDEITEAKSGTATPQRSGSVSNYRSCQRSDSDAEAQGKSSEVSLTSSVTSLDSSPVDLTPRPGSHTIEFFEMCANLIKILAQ
T1 sequence (P54619 whole entry partner): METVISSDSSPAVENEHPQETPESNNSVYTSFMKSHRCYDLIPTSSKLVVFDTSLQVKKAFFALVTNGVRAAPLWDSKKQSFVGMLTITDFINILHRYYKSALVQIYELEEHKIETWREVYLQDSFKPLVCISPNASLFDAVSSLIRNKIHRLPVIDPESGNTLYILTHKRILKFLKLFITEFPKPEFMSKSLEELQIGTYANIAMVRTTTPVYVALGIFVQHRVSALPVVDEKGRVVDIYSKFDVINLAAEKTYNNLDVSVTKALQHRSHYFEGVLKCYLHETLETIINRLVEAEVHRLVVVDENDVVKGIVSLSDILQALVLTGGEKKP
T9 sequence (Q13131 whole entry K40A/K42A): as the sequence (Q13131 whole entry) above, with K40A, K42A counted along it
T9 sequence (Q9Y478 whole entry): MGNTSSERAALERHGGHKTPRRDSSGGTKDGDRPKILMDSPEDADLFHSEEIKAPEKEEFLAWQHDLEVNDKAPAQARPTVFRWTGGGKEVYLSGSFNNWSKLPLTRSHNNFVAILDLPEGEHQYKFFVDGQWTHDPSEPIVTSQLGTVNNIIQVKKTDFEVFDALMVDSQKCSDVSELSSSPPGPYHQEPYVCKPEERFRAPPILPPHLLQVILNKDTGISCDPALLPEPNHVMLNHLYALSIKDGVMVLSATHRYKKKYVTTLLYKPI
T9 sequence (P54619 whole entry): as the sequence (P54619 whole entry partner) above
T2 sequence (Q13131 whole entry): as the sequence (Q13131 whole entry) above
T2 sequence (P54619 whole entry partner): as the sequence (P54619 whole entry partner) above
T6 sequence (Q13131 whole entry): as the sequence (Q13131 whole entry) above
T6 sequence (Q9Y478 whole entry): as the sequence (Q9Y478 whole entry) above
T6 sequence (P54619 whole entry): as the sequence (P54619 whole entry partner) above
T7 sequence (Q13131 whole entry K40A): as the sequence (Q13131 whole entry) above, with K40A counted along it
T7 sequence (Q9Y478 whole entry): as the sequence (Q9Y478 whole entry) above
T7 sequence (P54619 whole entry): as the sequence (P54619 whole entry partner) above
T11 sequence (Q9UGJ0 whole entry R531G): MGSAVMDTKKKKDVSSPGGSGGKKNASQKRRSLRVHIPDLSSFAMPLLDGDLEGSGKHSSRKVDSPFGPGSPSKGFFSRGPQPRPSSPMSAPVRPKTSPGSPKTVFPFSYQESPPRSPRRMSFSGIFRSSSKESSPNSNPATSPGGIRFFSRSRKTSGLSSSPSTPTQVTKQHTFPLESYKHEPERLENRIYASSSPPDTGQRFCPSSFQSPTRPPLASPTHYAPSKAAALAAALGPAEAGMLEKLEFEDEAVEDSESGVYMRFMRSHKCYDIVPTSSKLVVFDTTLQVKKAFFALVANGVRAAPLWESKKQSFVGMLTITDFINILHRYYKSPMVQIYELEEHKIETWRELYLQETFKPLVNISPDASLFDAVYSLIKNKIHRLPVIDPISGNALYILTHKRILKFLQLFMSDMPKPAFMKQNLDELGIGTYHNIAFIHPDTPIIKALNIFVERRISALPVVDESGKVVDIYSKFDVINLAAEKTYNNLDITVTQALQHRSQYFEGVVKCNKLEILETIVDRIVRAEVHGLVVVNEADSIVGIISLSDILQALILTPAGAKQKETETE
Chain of human AMPK-α2 (WT) (P54646 whole entry, the tested form may be a part): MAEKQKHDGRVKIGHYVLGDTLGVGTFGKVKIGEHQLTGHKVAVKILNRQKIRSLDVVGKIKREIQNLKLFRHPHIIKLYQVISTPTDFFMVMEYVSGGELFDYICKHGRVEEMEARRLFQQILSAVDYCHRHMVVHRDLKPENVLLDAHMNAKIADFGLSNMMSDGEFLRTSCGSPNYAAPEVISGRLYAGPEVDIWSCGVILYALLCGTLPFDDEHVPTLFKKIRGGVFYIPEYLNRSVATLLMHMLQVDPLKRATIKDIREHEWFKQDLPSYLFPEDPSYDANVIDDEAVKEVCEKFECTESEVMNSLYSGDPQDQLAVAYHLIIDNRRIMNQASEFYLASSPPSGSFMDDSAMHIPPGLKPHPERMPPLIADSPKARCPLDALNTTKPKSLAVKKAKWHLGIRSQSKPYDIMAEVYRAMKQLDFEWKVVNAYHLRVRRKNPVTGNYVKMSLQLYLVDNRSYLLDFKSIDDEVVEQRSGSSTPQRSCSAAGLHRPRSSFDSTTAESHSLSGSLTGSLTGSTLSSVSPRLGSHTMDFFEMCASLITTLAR
Chain of human AMPK-α2 (WT) (P54619 whole entry partner, the tested form may be a part): as the sequence (P54619 whole entry partner) above
T12 sequence (Q13131 whole entry K40A/K42A): as the sequence (Q13131 whole entry) above, with K40A, K42A counted along it
T12 sequence (P54619 whole entry partner): as the sequence (P54619 whole entry partner) above
T4 sequence (Q13131 whole entry A167T): as the sequence (Q13131 whole entry) above, with A167T counted along it
T4 sequence (P54619 whole entry partner): as the sequence (P54619 whole entry partner) above
T3 sequence (Q13131 1-312): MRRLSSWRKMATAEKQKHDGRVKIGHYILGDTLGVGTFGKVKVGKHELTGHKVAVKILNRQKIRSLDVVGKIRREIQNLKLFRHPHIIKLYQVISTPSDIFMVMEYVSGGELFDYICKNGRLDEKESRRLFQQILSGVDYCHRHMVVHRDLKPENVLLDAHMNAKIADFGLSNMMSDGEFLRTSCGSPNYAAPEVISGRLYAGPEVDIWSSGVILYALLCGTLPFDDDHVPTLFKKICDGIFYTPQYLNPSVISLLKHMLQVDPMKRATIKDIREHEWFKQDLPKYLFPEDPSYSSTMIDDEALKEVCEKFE
T8 sequence (Q13131 whole entry K42A): as the sequence (Q13131 whole entry) above, with K42A counted along it
T8 sequence (Q9Y478 whole entry): as the sequence (Q9Y478 whole entry) above
T8 sequence (P54619 whole entry): as the sequence (P54619 whole entry partner) above
T5 sequence (P54646 whole entry Y436F): as the sequence (P54646 whole entry, the tested form may be a part) above, with Y436F counted along it
T5 sequence (P54619 whole entry partner): as the sequence (P54619 whole entry partner) above
T10 sequence (Q9UGJ0 whole entry): as the sequence (Q9UGJ0 whole entry R531G) above, with G531R counted along it

Row | Activation (maximal allosteric activation) ([7]; not phosphorylated on Thr172, relative to basal activity) | EC50 ([7]; read-out: EC50 (concentration causing half-maximal effect)) | Activation (maximal allosteric activation) [8] | EC50 [8] | Activation (maximal allosteric activation) [9] | Activation (maximal allosteric activation) [10] | EC50 [10] | AMPK activity [11] | AMPK activity [12] | effect of AA mutation on AMPK activation [13] | SMILES | AMPK activity in anti-FLAG immunoprecipitates [1] | AMPK activity [2] | kinase activity / Thr172 phosphorylation [3] | kinase activity / Thr172 phosphorylation [4] | AMPK activity [5] | AMPK activation response with Y436F mutation [6] | AMPK activity and Thr172 phosphorylation ([2]; WT FLAG-α1, A769662 300 μM, berberine 300 μM, phenformin 10 mM, troglitazone 100 μM, oligomycin 1 μM, SU6656 100 μM)
1 | – | – | – | – | – | – | – | – | – | – | CNc1ccc2oc(C[C@H]3O[C@@]4(CC[C@H]3C)O[C@H]([C@H](C)C(=O)c3ccc[nH]3)[C@H](C)C[C@H]4C)nc2c1C(=O)O [A23187] | all activated AMPK | activated equally well | also observed | also observed | activated equally well | unaffected by the Y436F mutation | –
2 | 38 ± 1 fold | 1000 ± 100 nM | 18 ± 0.7 fold | 4000 ± 700 nM | 21 ± 0.6 fold | 1.0 ± 0.03 fold | 1 ± 2 nM | activated AMPK in both | activated AMPK in both | completely prevented | N#Cc1c(O)c2c(-c3ccc(-c4ccccc4O)cc3)csc2[nH]c1=O [A769662] | – | did not cause a significant activation | not statistically significant | – | – | – | activated AMPK and caused Thr172 phosphorylation
